Assay results: patent publication US10023565B2, “N,N′ substituted piperidinamine compounds, and preparation method and usage thereof” (Institute of Pharmacology and Toxicology Academy of …, priority 2013, dated 2018)

Legend:
Assay type in all cases: cell-based
BT474 = test: Antitumor bioactivity evaluation, breast cancer cells (ATPlite); conditions: Homo sapiens, BT-474; for inhibition at 5 µM: test sample 5 μM, 72 hours, read-out: Inhibitory Rate % BT474
Method in brief: (§1)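 5000 cells/well, 24 h adhesion; cpd 5 μM final ± lapatinib 1 μM final; 72 h, 37 °C; ATPlite luminescence; survival % = sample RLU/control RLU ×100; 5 replicate wells.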

MDA-MB-361 = test: as above; conditions: Homo sapiens, test sample 5 μM, 72 hours, read-out: Inhibitory Rate % MDA-MB-361
Method in brief: as §1

MDA-MB-453 = test: as above; conditions: Homo sapiens, test sample 5 μM, 72 hours, read-out: Inhibitory Rate % MDA-MB-453
Method in brief: as §1

SK-BR3 = test: as above; conditions: Homo sapiens, SK-BR-3; test sample 5 μM, 72 hours; read-out: Inhibitory Rate % SK-BR3
Method in brief: as §1

SK/Lap^R1.0 = test: as above; conditions: Homo sapiens; test sample 5 μM, 72 hours; read-out: Inhibitory Rate % SKLap^R1.0
Method in brief: as §1

[1] = test system: six human breast cancer cell strains; test: Antitumor activity evaluation, statements on the whole panel; conditions: compound alone
Source text: In antitumor activity evaluation, six human breast cancer cell strains are selected, including BT474, SK-BR3 which are human breast cancer cell strains sensitive to lapatinib, BT/Lap^R1.0, SK/Lap^R1.0 which are human breast cancer cell strains with secondary resistance to lapatinib, MDA-MB-361, MDA-MB-453 which are human breast cancer cell strains with natural resistance tolapatinib.
Antitumor bioactivity evaluation of the compounds of Examples according to the method described below
(§2) Cells plating: a 100 mm culture dish with overgrown adherent cells was digested with 1 ml 0.25% trypsin (GIBCO) at 37° C. for 5 min, and the reaction was terminated with 2 ml culture medium (containing 10% FBS, GIBCO). The cells were scattered and collected, after counting, diluted to 1×10^5 cells/ml, and seeded into a 96-well plate at 50 μl/well, 5000 cells/well, excluding the peripheral circle of wells in which no cell was added, but PBS was added, 60 wells in total, and then incubated at 37° C. for 24 hours for adhering.
Addition of the compound and lapatinib: the test sample was diluted to a final concentration of 5 μM, and the culture medium with the corresponding compound solvent concentration was filled in the control well, the compound solvent concentration was kept consistent in each well, 5 parellel wells were set for each concentration, 25 μl each well, 25 μl culture medium (in combined group, 25 μl lapatinib was added till a final concentration of 1 μM) supplemented, followed by incubation at 37° C. for 72 hours.
(§3) Test after incubation at 37° C. for 72 hours: 50 μL of ATPlite kit substrate solution was added in each well, and vibrated for 3 min, followed by placing aside in darkness for 10 min, and then supernatant 100 μl/well was taken and placed on aluminescence test plate; the luminescence test plate that has been fully incubated was placed in a luminescence test instrument, to read luminescence value.
1. Cell survival rate (%)=Experimental group RLU/control group RLU×100%. The experimental data were subjected to data analysis and processing by utilizing GraphPad software.

A549 = test: Extended test against tumor cell lines (ATPlite); conditions: A549 (lung cancer), 72 hours
Description: (§4) The compounds of Examples 36/37/40/47/49 were used to carry out extended test against tumor cell lines, wherein 12 kinds of cells were selected, including liver cancer cells, gastric cancer cells, pancreatic cancer cells, colorectal cancer cells, lung cancer cells and normal cells, which were shown in Table 12:
as §2, with “A” for “Cells plating: a”, “54” for “60”
(§5) The test sample was diluted to final concentration of 4, 1, 0.25, 0.063, 0.016 μM, culture medium was filled in control well, 3 parellel wells were set for each concentration, 50 μl each well, followed by incubation at 37° C. for 72 hours.
as §3, with “3) Test” for “Test”, “kitsubstrate” for “kit substrate”, “a luminescence” for “aluminescence”
(§6) Cell survival rate (%)=Experimental group RLU/control group RLU×100%. The experimental data were subjected to data analysis and processing by utilizing GraphPad software.

AsPC-1 = test: Extended test against tumor cell lines (ATPlite); conditions: AsPC-1 (pancreatic cancer), 72 hours
Description: as §4
as §2, with “A” for “Cells plating: a”, “54” for “60”
as §5
as §3, with “3) Test” for “Test”, “kitsubstrate” for “kit substrate”, “a luminescence” for “aluminescence”
as §6

BGC823 = test: Extended test against tumor cell lines (ATPlite); conditions: BGC823 (gastric cancer), 72 hours
Description: as §4
as §2, with “A” for “Cells plating: a”, “54” for “60”
as §5
as §3, with “3) Test” for “Test”, “kitsubstrate” for “kit substrate”, “a luminescence” for “aluminescence”
as §6

COLO205 = test: Extended test against tumor cell lines (ATPlite); conditions: COLO205 (colorectal cancer), 72 hours
Description: as §4
as §2, with “A” for “Cells plating: a”, “54” for “60”
as §5
as §3, with “3) Test” for “Test”, “kitsubstrate” for “kit substrate”, “a luminescence” for “aluminescence”
as §6

HepG2 = test: Extended test against tumor cell lines (ATPlite); conditions: HepG2 (liver cancer), 72 hours
Description: as §4
as §2, with “A” for “Cells plating: a”, “54” for “60”
as §5
as §3, with “3) Test” for “Test”, “kitsubstrate” for “kit substrate”, “a luminescence” for “aluminescence”
as §6

Huh-7 = test: Extended test against tumor cell lines (ATPlite); conditions: Huh-7 (liver cancer), 72 hours
Description: as §4
as §2, with “A” for “Cells plating: a”, “54” for “60”
as §5
as §3, with “3) Test” for “Test”, “kitsubstrate” for “kit substrate”, “a luminescence” for “aluminescence”
as §6

[2] = test system: WI-38 (human embryonic lung fibroblast); test: Extended test against tumor cell lines (ATPlite); conditions: WI-38 (normal cells), 72 hours
Description: as §4
as §2, with “A” for “Cells plating: a”, “54” for “60”
as §5
as §3, with “3) Test” for “Test”, “kitsubstrate” for “kit substrate”, “a luminescence” for “aluminescence”
as §6

[3] = test system: tumor cells and normal cells (12 kinds of cells); test: Extended test against tumor cell lines, statements on the whole panel; conditions: 12 kinds of cells, 0.016-4 μM, 72 hours
Description: as §4
as §2, with “A” for “Cells plating: a”, “54” for “60”
as §5
as §3, with “3) Test” for “Test”, “kitsubstrate” for “kit substrate”, “a luminescence” for “aluminescence”
as §6

Structure (SMILES): CSc1nccc(N2CCC(N(C)Cc3c(F)cccc3Cl)CC2)n1 [Example 37, N-methyl-N-(2-fluoro-6-chlorobenzyl)-N-[1-(2-methylthiopyrimidin-4-yl)piperidin-4-yl]amine]
- IC50 (BT474): 1.04 µM
- inhibition at 5 µM (BT474): 75.5%
- inhibition at 5 µM (MDA-MB-361): 55.9%
- inhibition at 5 µM (MDA-MB-453): 84.2%
- inhibition at 5 µM (SK-BR3): 78.9%
- inhibition at 5 µM (SK/Lap^R1.0): 78.3%
- growth inhibition to the six human breast cancer cell strains [1]: relatively significant growth inhibition
- Survival rate (A549; 0.016 μM): 99.5%
- Survival rate (A549; 0.063 μM): 98.5%
- Survival rate (A549; 0.25 μM): 97.6%
- Survival rate (A549; 1 μM): 73%
- Survival rate (A549; 4 μM): 39.5%
- Survival rate (AsPC-1; 0.016 μM): 98.8%
- Survival rate (AsPC-1; 0.063 μM): 99.5%
- Survival rate (AsPC-1; 0.25 μM): 94.1%
- Survival rate (AsPC-1; 1 μM): 81.7%
- Survival rate (AsPC-1; 4 μM): 52.3%
- Survival rate (BGC823; 0.016 μM): 97.6%
- Survival rate (BGC823; 0.063 μM): 97.2%
- Survival rate (BGC823; 0.25 μM): 90.2%
- Survival rate (BGC823; 1 μM): 59.7%
- Survival rate (BGC823; 4 μM): 21%
- Survival rate (COLO205; 0.016 μM): 100.1%
- Survival rate (COLO205; 0.063 μM): 97.5%
- Survival rate (COLO205; 0.25 μM): 100.4%
- Survival rate (COLO205; 1 μM): 94.5%
- Survival rate (COLO205; 4 μM): 12.9%
- Survival rate (HepG2; 0.016 μM): 97.1%
- Survival rate (HepG2; 0.063 μM): 92.3%
- Survival rate (HepG2; 0.25 μM): 78.1%
- Survival rate (HepG2; 1 μM): 45.7%
- Survival rate (HepG2; 4 μM): 5.6%
- Survival rate (Huh-7; 0.016 μM): 91.9%
- Survival rate (Huh-7; 0.063 μM): 86.7%
- Survival rate (Huh-7; 0.25 μM): 82.3%
- Survival rate (Huh-7; 1 μM): 46.7%
- Survival rate (Huh-7; 4 μM): 14.9%
- Survival rate ([2]; 0.016 μM): 98.6%
- Survival rate ([2]; 0.063 μM): 99.2%
- Survival rate ([2]; 0.25 μM): 95.5%
- Survival rate ([2]; 1 μM): 89.7%
- Survival rate ([2]; 4 μM): 65.6%
- inhibition of tumor cells versus cytotoxicity to normal cells [3]: slightly stronger inhibition to liver cancer than that to other tumor cells, and exhibited cytotoxicity to normal cells lower than inhibition to tumor cells

Structure (SMILES): CSc1nccc(N2CCC(N(C)Cc3c(Cl)cccc3Cl)CC2)n1 [Example 49, N-methyl-N-(2,6-dichlorobenzyl)-N-[1-(2-methylthiopyrimidin-4-yl)piperidin-4-yl]amine]
- IC50 (BT474): 0.78 µM
- inhibition at 5 µM (BT474): 61.5%
- inhibition at 5 µM (MDA-MB-361): 30.1%
- inhibition at 5 µM (MDA-MB-453): 68.9%
- inhibition at 5 µM (SK-BR3): 19.7%
- inhibition at 5 µM (SK/Lap^R1.0): 13.5%
- Survival rate (A549; 0.016 μM): 99.9%
- Survival rate (A549; 0.063 μM): 95.1%
- Survival rate (A549; 0.25 μM): 95.2%
- Survival rate (A549; 1 μM): 60.5%
- Survival rate (A549; 4 μM): 40.1%
- Survival rate (AsPC-1; 0.016 μM): 99.1%
- Survival rate (AsPC-1; 0.063 μM): 97.5%
- Survival rate (AsPC-1; 0.25 μM): 93.8%
- Survival rate (AsPC-1; 1 μM): 64.4%
- Survival rate (AsPC-1; 4 μM): 44.3%
- Survival rate (BGC823; 0.016 μM): 102.8%
- Survival rate (BGC823; 0.063 μM): 102.4%
- Survival rate (BGC823; 0.25 μM): 95.1%
- Survival rate (BGC823; 1 μM): 44%
- Survival rate (BGC823; 4 μM): 17.3%
- Survival rate (COLO205; 0.016 μM): 98.1%
- Survival rate (COLO205; 0.063 μM): 94.2%
- Survival rate (COLO205; 0.25 μM): 95.8%
- Survival rate (COLO205; 1 μM): 83.9%
- Survival rate (COLO205; 4 μM): 4.1%
- Survival rate (HepG2; 0.016 μM): 101.8%
- Survival rate (HepG2; 0.063 μM): 96.2%
- Survival rate (HepG2; 0.25 μM): 82.1%
- Survival rate (HepG2; 1 μM): 9.5%
- Survival rate (HepG2; 4 μM): 2.4%
- Survival rate (Huh-7; 0.016 μM): 91.3%
- Survival rate (Huh-7; 0.063 μM): 82%
- Survival rate (Huh-7; 0.25 μM): 70.5%
- Survival rate (Huh-7; 1 μM): 19.4%
- Survival rate (Huh-7; 4 μM): 12.8%
- Survival rate ([2]; 0.016 μM): 98.5%
- Survival rate ([2]; 0.063 μM): 97.3%
- Survival rate ([2]; 0.25 μM): 92.4%
- Survival rate ([2]; 1 μM): 79.8%
- Survival rate ([2]; 4 μM): 48.4%
- inhibition of tumor cells versus cytotoxicity to normal cells [3]: certain inhibition and cytotoxicity to either tumor cells or normal cells, without significant difference
